Measurements as given in publication PMC10455806, “New Sorbicillinoids from the Mangrove Endophytic Fungus Trichoderma reesei SCNU-F0042” (Marine Drugs, 2023).
Read-outs that look alike come from different tables or passages of the source.

Legend:
Format in all cases: cell-based
SARS-CoV-2 (BA.2) = assay: microbe, parasite or virus in culture; details: for EC50: 48 h, mean from three parallel experiments, read-out: Inhibition of SARS-CoV-2 Viruses (EC50/μM)
[1] = Cell viability assay (MTT method); details: human
Experimental: (§1) […] Tested cell lines were cultured in Dulbecco’s modified Eagle’s medium (DMEM) (Invitrogen, Carlsbad, CA, USA) supplemented with 5% fetal bovine serum (Hyclone, Logan, UT, USA), 2 mM L-glutamine, […] streptomycin, and 100 units/mL penicillin (Invitrogen). The cultures were maintained at 37 °C in a humidified atmosphere of 5% CO2.

HEK 293T-hACE2 cells = assay: Cell viability assay (MTT method); details: at 80 μM, 293T cells
Experimental: as §1

[2] = Severe acute respiratory syndrome coronavirus 2, HEK-293T, […]
[3] = 293T cell, MTT, mean from three parallel experiments, read-out: Cytotoxicity for 293T Cell (IC50/μM)

SMILES: CC=CC=CC(=O)C1C(C2(C)OC(=O)C(C)=C2O)C2C(=C(O)C=CC=CCO)C(=O)C1(C)C(=O)C2(C)O (stereo not drawn) [Compound 1, 14-hydroxybislongiquinolide]
- antiviral activity against SARS-CoV-2 (SARS-CoV-2 (BA.2)): no activity
- EC50 (SARS-CoV-2 (BA.2); [2]): > 80 µM
- IC50 [1, 3]: > 80 µM

SMILES: CC=CC=CC(O)=C1C(=O)C2(C)C(=O)C(C)(O)C1C(C1(C)OC(=O)C(C)=C1O)C2C(=O)C=CC=CCO (stereo not drawn) [Compound 2, 20-hydroxybislongiquinolide]
- EC50 (SARS-CoV-2 (BA.2); [2]): 29 µM
- IC50 [1, 3]: > 80 µM
- cytotoxicity (HEK 293T-hACE2 cells): without cytotoxicity

SMILES: CC1=C(O)C(C)(C2C3C(=C(O)C=CC=CCO)C(=O)C(C)(C(=O)C3(C)O)C2C(=O)C=CC=CCO)OC1=O (stereo not drawn) [Compound 3, 14, 20-dihydroxybislongiquinolide]
- antiviral activity against SARS-CoV-2 (SARS-CoV-2 (BA.2)): no activity
- EC50 (SARS-CoV-2 (BA.2); [2]): > 80 µM
- IC50 [1, 3]: > 80 µM

SMILES: CC(=O)Oc1cc(/C=C/C=C/C(=O)O)oc(=O)c1C [Compound 5, Acetylchrysopyrone B]
- antiviral activity against SARS-CoV-2 (SARS-CoV-2 (BA.2)): no activity
- EC50 (SARS-CoV-2 (BA.2); [2]): > 80 µM
- IC50 [1, 3]: > 80 µM

SMILES: CCC(CC)COC(=O)[C@H](C)N[P@](=O)(OC[C@H]1O[C@@](C#N)(c2ccc3c(N)ncnn23)[C@H](O)[C@@H]1O)Oc1ccccc1 [Remdesivir, reference compound]
- EC50 (SARS-CoV-2 (BA.2); [2]): 1.2 µM
- IC50 (SARS-CoV-2 (BA.2); Severe acute respiratory syndrome coronavirus 2, HEK-293T, […], read-out: IC50 (positive control, SARS-CoV-2 assay)): 1200 nM
- IC50 [1]: > 80 µM
